Data reported in US8580728B2, “Use of fragrance compositions for the prevention of the development of indole base malodours from fecal and urine based soils” (Takasago International Corporation, priority 2006, dated 2013).

Assay: Decrease of fragrance compound concentration during the indole inhibition test (GCMS)
Type: physicochemical
Design: key: Y = Yes
Conditions: 24 hours in fresh human urine, room temperature; for Decrease in Fragrance Compounds after 24 hours (%): >60%: category >60% decrease; for Decrease in Fragrance Compounds after 24 hours (%): 0-30%: category 0-30% decrease
Procedure: Advantageously, the appropriate fragrance compounds may be selected by using the following preferred indole inhibition test which comprises the following steps: • A) 0.02 g of fragrance and 0.02 g of Tergitol 15-s-12 was added to 7 g of fresh human urine in a 20 ml Headspace vial sealed with a PTFE faced septum and well mixed for 10 minutes using a magnetic stirrer. For a blank to test the suitability of a batch of fresh human urine, 7 g of human urine was used with 0.02 g of demineralised water and 0.02 g of Tergitol 15-s-12. If a control was required, to test the efficacy of product base for example, the control contained 7 g of human urine to which was added 0.02 g of fragrance, minus the active agents and 0.02 g of Tergitol 15-s-12. • B) The vials are placed in an autosampler tray at room temperature. • C) At different times the headspace in the vials is sampled for 5 minutes at 35° C. by an SPME fibre (PDMS fibre ex Supelco) after 10 minutes at 35° C. (incubation time). • D) The SPME fibre is desorbed 1 minute at 265° C. from a CTC Combipal autosampler and injected in splitless mode onto an Agilent GC-MS 5973N with a HP-INNOWAX column (30 m×0.25×0.25). (Oven conditions: 50° C. during 2 min-to 250° C. at 10° C./min-250° C. during 5 minutes). • E) Under the above GC-MS conditions, indole has a retention time of 19.14 minutes, and can be recognised by its characteristic ions (m/z 117, m/z 89 and m/z 90). • F) In the range of values determined in this work, the area of the indole peak (117) is linearly related to the actual concentration in the vial, and was used without further correction to establish the concentration of indole in “Active” and “Blank” and if present any “Control” fragrances. • G) The material is deemed to be active if the indole concentration in the test sample is below 0.01 ppm (wt/wt) after 24 hours incubation at room temperature and the indole in the blank samples is between 0.25 ppm (wt/wt) and 1.25 ppm (wt/wt) indole after 24 hours storage at room temperature. • H) The change in the active ingredient concentration is determined by comparing measurements at the start of the experiment and after 24 hours using appropriate characteristic ions.
This can be determined by measuring the fragrance concentration in the sample containing the test cocktail at the start and end of the indole inhibition test as described in step I of the test. If the difference between the measurements is less than 60% preferably less than 30% then the material is considered as not to have changed sufficiently to alter the fragrance note and to be particularly preferred.
A sample of fresh human urine is divided into equal portions and a fragrance containing one or more of the effective materials was added as described in the Indole Inhibition Test. […] The samples were stored and after 24 hours the indole content and fragrance active content is measured by gas chromatography with mass spectrometric (GCMS) detection. Those formulations containing active ingredients prevented the formation of indole while both the unfragranced and the alcohol containing control samples had much greater quantities of indole present. Also for the active compounds a GCMS measurement indicated the extent to which the compound was itself consumed as part of the process. In table 2 the decrease in fragrance components has been classified into 3 categories and the letter Y indicates the appropriate category for the compounds which have been measured. The absence of a letter Y in any category means that the decrease has not been measured for that compound.

| Compound | Decrease in Fragrance Compounds after 24 hours (%): 0-30% | also measured |
| --- | --- | --- |
| CCCCCCCCCCC=O [Aldehyde C11] |  | Decrease in Fragrance Compounds after 24 hours (%): >60%: Y |
| O=C/C=C/c1ccccc1 [Cinnamic aldehyde] | Y |  |
| C=C(C)C1CC=C(C=O)CC1 (stereo not shown) [Perilla aldehyde] | Y |  |
| CCc1occc(=O)c1O [Veltol Plus] |  | Decrease in Fragrance Compounds after 24 hours (%): >60%: Y |
| CC(C)=CCCC(C)=CC=O [Citral] | Y |  |
| O=Cc1ccccc1 [Benzaldehyde] | Y |  |
| CCC/C=C/C=O [Trans 2 hexenal] |  | Decrease in Fragrance Compounds after 24 hours (%): 0-60% (category 0-60% decrease): Y |
